Reference: the supplement of paper PMC10307832

Key:
Experiment in all cases: relative viability (nuclei count vs DMSO), 5 days (fraction); higher = more cells survive
SGI-1776 + Dasatinib = compound: CN1CCC(CNc2ccc3ncc(-c4cccc(OC(F)(F)F)c4)n3n2)CC1 [SGI-1776] + Cc1nc(Nc2ncc(C(=O)Nc3c(C)cccc3Cl)s2)cc(N2CCN(CCO)CC2)n1 [Dasatinib] (partner 0.075 µM)
In short: (§1)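 Cells from lung cancer lines were seeded into 1536-well plates and, one day later, dosed by pin tool. Treatments were either a single drug or a fixed dose of an anchor drug with five library-drug doses (not always all listed) in √10 steps. After 5 days, nuclei were stained in a one-step fixation (final 0.05% Triton X-100, 1% formaldehyde, 1 ug/ml Hoechst) and counted on 4× images, and relative viability is the treated-to-vehicle nuclei ratio, as the median of duplicate plates.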

SGI-1776 + Phenformin = compound: CN1CCC(CNc2ccc3ncc(-c4cccc(OC(F)(F)F)c4)n3n2)CC1 [SGI-1776] + N=C(N)NC(=N)NCCc1ccccc1 [Phenformin] (partner 250 µM)
In short: as §1

SGI-1776 + AZD7762 = compound: CN1CCC(CNc2ccc3ncc(-c4cccc(OC(F)(F)F)c4)n3n2)CC1 [SGI-1776] + NC(=O)Nc1cc(-c2cccc(F)c2)sc1C(=O)N[C@H]1CCCNC1 [AZD7762] (partner 0.2 µM)
In short: as §1

Entinostat + Decitabine = compound: Nc1ccccc1NC(=O)c1ccc(CNC(=O)OCc2cccnc2)cc1 [Entinostat] + Nc1ncn([C@H]2C[C@H](O)[C@@H](CO)O2)c(=O)n1 [Decitabine] (partner 2 µM)
In short: as §1

| Cell Line | relative viability (SGI-1776 + Dasatinib; first compound 0.08 µM) | relative viability (SGI-1776 + Dasatinib; first compound 0.8 µM) | relative viability (SGI-1776 + Dasatinib; first compound 2.53 µM) | relative viability (SGI-1776 + Dasatinib; first compound 8 µM) | relative viability (SGI-1776 + Phenformin; first compound 0.08 µM) | relative viability (SGI-1776 + Phenformin; first compound 0.8 µM) | relative viability (SGI-1776 + Phenformin; first compound 2.53 µM) | relative viability (SGI-1776 + Phenformin; first compound 8 µM) | relative viability (SGI-1776 + AZD7762; first compound 0.08 µM) | relative viability (SGI-1776 + AZD7762; first compound 0.8 µM) | relative viability (SGI-1776 + AZD7762; first compound 2.53 µM) | relative viability (SGI-1776 + AZD7762; first compound 8 µM) | relative viability (Entinostat + Decitabine; first compound 0.02 µM) | relative viability (Entinostat + Decitabine; first compound 0.06325 µM) | relative viability (Entinostat + Decitabine; first compound 0.2 µM) | relative viability (Entinostat + Decitabine; first compound 0.6325 µM) | relative viability (Entinostat + Decitabine; first compound 2 µM) |
| --- | --- | --- | --- | --- | --- | --- | --- | --- | --- | --- | --- | --- | --- | --- | --- | --- | --- |
| NCI-H1915 | 0.315 | 0.273 | 0.29 | 0.261 | 0.37 | 0.368 | 0.382 | 0.357 | 0.756 | 0.663 | 0.705 | 0.791 | 0.276 | 0.246 | 0.258 | 0.229 | 0.197 |
| NCI-H1944 | 0.223 | 0.2 | 0.223 | 0.173 | 0.186 | 0.188 | 0.189 | 0.164 | 0.619 | 0.595 | 0.518 | 0.441 | 0.391 | 0.372 | 0.258 | 0.25 | 0.245 |
| NCI-H1975 | 0.385 | 0.369 | 0.253 | 0.232 | 0.426 | 0.41 | 0.403 | 0.379 | 0.749 | 0.745 | 0.631 | 0.43 | 0.358 | 0.35 | 0.301 | 0.169 | 0.155 |
| NCI-H1993 | 0.584 | 0.651 | 0.55 | 0.528 | 0.538 | 0.515 | 0.515 | 0.492 | 0.839 | 0.941 | 0.889 | 0.482 | 0.537 | 0.54 | 0.559 | 0.645 | 0.466 |
| NCI-H2085 | 0.248 | 0.264 | 0.243 | 0.201 | 0.852 | 0.8 | 0.795 | 0.58 | 1.08 | 1.06 | 0.978 | 0.956 | 0.552 | 0.545 | 0.51 | 0.483 | 0.405 |
| NCI-H2087 | 0.782 | 1.09 | 0.826 | 0.595 | 0.444 | 0.394 | 0.432 | 0.44 | 1.29 | 1.36 | 1.44 | 1.27 | 0.283 | 0.302 | 0.186 | 0.133 | 0.106 |
| NCI-H2126 | 0.642 | 0.635 | 0.481 | 0.434 | 0.543 | 0.509 | 0.535 | 0.473 | 1 | 0.98 | 1.02 | 0.959 | 0.557 | 0.53 | 0.57 | 0.418 | 0.346 |
| NCI-H2170 | 0.651 | 0.527 | 0.354 | 0.434 | 0.388 | 0.382 | 0.345 | 0.307 | 0.839 | 0.966 | 0.874 | 0.828 | 0.465 | 0.468 | 0.376 | 0.281 | 0.236 |
| NCI-H2342 | 0.364 | 0.326 | 0.289 | 0.301 | 0.696 | 0.669 | 0.532 | 0.501 | 0.57 | 0.625 | 0.442 | 0.517 | 0.806 | 0.704 | 0.65 | 0.607 | 0.557 |
| NCI-H2347 | 0.346 | 0.319 | 0.306 | 0.265 | 0.652 | 0.44 | 0.333 | 0.396 | 0.825 | 0.912 | 0.81 | 0.692 | 0.611 | 0.585 | 0.494 | 0.471 | 0.363 |
| NCI-H2405 | 0.225 | 0.195 | 0.178 | 0.166 | 0.384 | 0.304 | 0.215 | 0.227 | 0.706 | 0.728 | 0.57 | 0.608 | 0.693 | 0.784 | 0.686 | 0.501 | 0.511 |
| NCI-H3122 | 0.877 | 0.76 | 0.96 | 0.821 | 0.371 | 0.328 | 0.309 | 0.278 | 0.941 | 0.935 | 0.938 | 1 | 0.439 | 0.47 | 0.477 | 0.339 | 0.243 |
| PC-3 [JPC-3] | 1.1 | 0.961 | 0.977 | 0.857 | 0.509 | 0.476 | 0.511 | 0.451 | 0.921 | 0.872 | 0.685 | 0.609 | 0.778 | 0.852 | 0.731 | 0.573 | 0.55 |
| PC-14 | 0.267 | 0.256 | 0.0958 | 0.0261 | 0.573 | 0.648 | 0.579 | 0.151 | 0.474 | 0.352 | 0.27 | 0.146 | 0.248 | 0.184 | 0.189 | 0.109 | 0.0779 |
| RERF-LC-KJ | 0.803 | 0.688 | 0.7 | 0.447 | 0.464 | 0.415 | 0.439 | 0.32 | 0.912 | 1.08 | 0.831 | 0.828 | 0.712 | 0.685 | 0.663 | 0.369 | 0.285 |
| SW 900 | 0.542 | 0.387 | 0.56 | 0.301 | 0.731 | 0.563 | 0.538 | 0.348 | 0.852 | 0.745 | 0.676 | 0.568 | 0.429 | 0.419 | 0.391 | 0.302 | 0.286 |
